Test results published in US20230085307A1, “PYRIDAZINONE COMPOUND AND HERBICIDE” (NISSAN CHEMICAL CORPORATION, priority 2019, published 2023).

Tests used:
windgrass [1] = test: Test Example 5: herbicidal effect by foliage application, plastic box (Table 20, symbol L); type: in vivo, windgrass (Apera spica-venti); conditions: foliage application, 320 g/ha, evaluated three weeks after application
In short: (§1)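 Post-emergence foliar test in sterilized diluvial soil. Compound applied as water-diluted emulsion at a predetermined rate to 14-day-old plants; evaluation at three weeks.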

wild oat [2] = test: Test Example 5: herbicidal effect by foliage application, plastic box (Table 20, symbol I); type: in vivo, wild oat (Avena fatua); conditions: foliage application, 320 g/ha, evaluated three weeks after application
In short: as §1

Italian ryegrass [3] = test: Test Example 5: herbicidal effect by foliage application, plastic box (Table 20, symbol K); type: in vivo, Italian ryegrass (Lolium multiflorum); conditions: foliage application, 320 g/ha, evaluated three weeks after application
In short: as §1

persian speedwell [4] = test: Test Example 4: herbicidal effect by soil treatment (Table 19, symbol R); type: in vivo, Persian speedwell (Veronica persica); conditions: amount of applied herbicide 320 g/ha
In short: (§2)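 Emulsion of test compound, water-diluted to predetermined amount, sprayed on soil after sowing (seed depth ~1.5 cm, sterilized diluvial soil). Greenhouse, 25–30° C. Effect graded at three weeks post-spray.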

green foxtail [5] = test: Test Example 5: herbicidal effect by foliage application, plastic box (Table 20, symbol G); type: in vivo, green foxtail (Setaria viridis); conditions: foliage application, 320 g/ha, evaluated three weeks after application
In short: as §1

lambsquarters [6] = test: Test Example 5: herbicidal effect by foliage application, plastic box (Table 20, symbol O); type: in vivo, lambsquarters (Chenopodium album); conditions: foliage application, 320 g/ha, evaluated three weeks after application
In short: as §1

southern crabgrass [7] = test: Test Example 5: herbicidal effect by foliage application, plastic box (Table 20, symbol F); type: in vivo, southern crabgrass (Digitaria ciliaris); conditions: foliage application, 320 g/ha, evaluated three weeks after application
In short: as §1

southern crabgrass [8] = test: Test Example 4: herbicidal effect by soil treatment (Table 19, symbol F); type: in vivo, southern crabgrass (Digitaria ciliaris); conditions: amount of applied herbicide 320 g/ha
In short: as §2

wild oat [9] = test: Test Example 4: herbicidal effect by soil treatment (Table 19, symbol I); type: in vivo, wild oat (Avena fatua); conditions: amount of applied herbicide 320 g/ha
In short: as §2

velvetleaf [10] = test: Test Example 5: herbicidal effect by foliage application, plastic box (Table 20, symbol M); type: in vivo, velvetleaf (Abutilon theophrasti); conditions: foliage application, 320 g/ha, evaluated three weeks after application
In short: as §1

barnyard grass [11] = test: Test Example 4: herbicidal effect by soil treatment (Table 19, symbol H); type: in vivo, barnyard grass (Echinochloa crus-galli); conditions: amount of applied herbicide 320 g/ha
In short: as §2

rice flat sedge = test: Test Example 3: herbicidal effect by foliage application, Wagner pot (Table 18, symbol E); type: in vivo, rice flat sedge (Cyperus iria); conditions: amount of applied herbicide 320 g/ha
In short: (§3)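 Plants were sown in alluvial soil held under 0.1–0.5 cm standing water and grown 14 days in a greenhouse at 25–30 °C. An emulsifiable formulation, water-diluted to the set dose, was then sprayed onto the foliage, and effects were scored three weeks later using previously defined criteria.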

false cleavers = test: Test Example 4: herbicidal effect by soil treatment (Table 19, symbol Q); type: in vivo, false cleavers (Galium spurium); conditions: amount of applied herbicide 320 g/ha
In short: as §2

Chinese sprangletop = test: Test Example 3: herbicidal effect by foliage application, Wagner pot (Table 18, symbol D); type: in vivo, chinese sprangletop (Leptochloa chinensis); conditions: amount of applied herbicide 320 g/ha
In short: as §3

redroot pigweed [12] = test: Test Example 4: herbicidal effect by soil treatment (Table 19, symbol N); type: in vivo, redroot pigweed (Amaranthus retroflexus); conditions: amount of applied herbicide 320 g/ha
In short: as §2

Italian ryegrass [13] = test: Test Example 4: herbicidal effect by soil treatment (Table 19, symbol K); type: in vivo, Italian ryegrass (Lolium multiflorum); conditions: amount of applied herbicide 320 g/ha
In short: as §2

chickweed [14] = test: Test Example 5: herbicidal effect by foliage application, plastic box (Table 20, symbol P); type: in vivo, common chickweed (Stellaria media); conditions: foliage application, 320 g/ha, evaluated three weeks after application
In short: as §1

velvetleaf [15] = test: Test Example 4: herbicidal effect by soil treatment (Table 19, symbol M); type: in vivo, velvetleaf (Abutilon theophrasti); conditions: amount of applied herbicide 320 g/ha
In short: as §2

persian speedwell [16] = test: Test Example 5: herbicidal effect by foliage application, plastic box (Table 20, symbol R); type: in vivo, Persian speedwell (Veronica persica); conditions: foliage application, 320 g/ha, evaluated three weeks after application
In short: as §1

redroot pigweed [17] = test: Test Example 5: herbicidal effect by foliage application, plastic box (Table 20, symbol N); type: in vivo, redroot pigweed (Amaranthus retroflexus); conditions: foliage application, 320 g/ha, evaluated three weeks after application
In short: as §1

windgrass [18] = test: Test Example 4: herbicidal effect by soil treatment (Table 19, symbol L); type: in vivo, windgrass (Apera spica-venti); conditions: amount of applied herbicide 320 g/ha
In short: as §2

blackgrass [19] = test: Test Example 5: herbicidal effect by foliage application, plastic box (Table 20, symbol J); type: in vivo, blackgrass (Alopecurus myosuroides); conditions: foliage application, 320 g/ha, evaluated three weeks after application
In short: as §1

green foxtail [20] = test: Test Example 4: herbicidal effect by soil treatment (Table 19, symbol G); type: in vivo, green foxtail (Setaria viridis); conditions: amount of applied herbicide 320 g/ha
In short: as §2

chickweed [21] = test: Test Example 4: herbicidal effect by soil treatment (Table 19, symbol P); type: in vivo, common chickweed (Stellaria media); conditions: amount of applied herbicide 320 g/ha
In short: as §2

barnyard grass [22] = test: Test Example 5: herbicidal effect by foliage application, plastic box (Table 20, symbol H); type: in vivo, barnyard grass (Echinochloa crus-galli); conditions: foliage application, 320 g/ha, evaluated three weeks after application
In short: as §1

blackgrass [23] = test: Test Example 4: herbicidal effect by soil treatment (Table 19, symbol J); type: in vivo, blackgrass (Alopecurus myosuroides); conditions: amount of applied herbicide 320 g/ha
In short: as §2

barnyard grass [24] = test: Test Example 3: herbicidal effect by foliage application, Wagner pot (Table 18, symbol H); type: in vivo, barnyard grass (Echinochloa crus-galli); conditions: amount of applied herbicide 320 g/ha
In short: as §3

lambsquarters [25] = test: Test Example 4: herbicidal effect by soil treatment (Table 19, symbol O); type: in vivo, lambsquarters (Chenopodium album); conditions: amount of applied herbicide 320 g/ha
In short: as §2

## CCCC(=O)Oc1c(C)nn(C)c(=O)c1-c1c(-c2ccc3c(c2)OCO3)sc2ccc(C)cc12 [2-157]
Windgrass [1]
  herbicidal effect on L: windgrass (criteria 0-5): 0 (Herbicidal rate of 5% or less (almost no effect))
Wild oat [2]
  herbicidal effect on I: wild oat (criteria 0-5): 0 (Herbicidal rate of 5% or less (almost no effect))
Italian ryegrass [3]
  herbicidal effect on K: Italian ryegrass (criteria 0-5): 0 (Herbicidal rate of 5% or less (almost no effect))
Persian speedwell [4]
  R: persian speedwell, herbicidal effect rating: 3 (Herbicidal rate of 40% or more and less than 70%)
Green foxtail [5]
  herbicidal effect on G: green foxtail (criteria 0-5): 0 (Herbicidal rate of 5% or less (almost no effect))
Lambsquarters [6]
  herbicidal effect on O: lambsquarters (criteria 0-5): 0 (Herbicidal rate of 5% or less (almost no effect))
Southern crabgrass [7]
  herbicidal effect on F: southern crabgrass (criteria 0-5): 0 (Herbicidal rate of 5% or less (almost no effect))
Southern crabgrass [8]
  F: southern crabgrass, herbicidal effect rating: 0 (Herbicidal rate of 5% or less (almost no effect))
Wild oat [9]
  I: wild oat, herbicidal effect rating: 0 (Herbicidal rate of 5% or less (almost no effect))
Velvetleaf [10]
  herbicidal effect on M: velvetleaf (criteria 0-5): 0 (Herbicidal rate of 5% or less (almost no effect))
Barnyard grass [11]
  H: barnyard grass, herbicidal effect rating: 0 (Herbicidal rate of 5% or less (almost no effect))
Rice flat sedge
  herbicidal effect on E: rice flat sedge: 0 (Herbicidal rate of 5% or less (almost no effect))
False cleavers
  Q: false cleavers, herbicidal effect rating: 0 (Herbicidal rate of 5% or less (almost no effect))
Chinese sprangletop
  herbicidal effect on D: Chinese sprangletop: 0 (Herbicidal rate of 5% or less (almost no effect))
Redroot pigweed [12]
  N: redroot pigweed, herbicidal effect rating: 0 (Herbicidal rate of 5% or less (almost no effect))
Italian ryegrass [13]
  K: Italian ryegrass, herbicidal effect rating: 0 (Herbicidal rate of 5% or less (almost no effect))
Chickweed [14]
  herbicidal effect on P: chickweed (criteria 0-5): 0 (Herbicidal rate of 5% or less (almost no effect))
Velvetleaf [15]
  M: velvetleaf, herbicidal effect rating: 0 (Herbicidal rate of 5% or less (almost no effect))
Persian speedwell [16]
  herbicidal effect on R: persian speedwell (criteria 0-5): 4 (Herbicidal rate of 70% or more and less than 90%)
Redroot pigweed [17]
  herbicidal effect on N: redroot pigweed (criteria 0-5): 3 (Herbicidal rate of 40% or more and less than 70%)
Windgrass [18]
  L: windgrass, herbicidal effect rating: 0 (Herbicidal rate of 5% or less (almost no effect))
Blackgrass [19]
  herbicidal effect on J: blackgrass (criteria 0-5): 0 (Herbicidal rate of 5% or less (almost no effect))
Green foxtail [20]
  G: green foxtail, herbicidal effect rating: 0 (Herbicidal rate of 5% or less (almost no effect))
Chickweed [21]
  P: chickweed, herbicidal effect rating: 4 (Herbicidal rate of 70% or more and less than 90%)
Barnyard grass [22]
  herbicidal effect on H: barnyard grass (criteria 0-5): 0 (Herbicidal rate of 5% or less (almost no effect))
Blackgrass [23]
  J: blackgrass, herbicidal effect rating: 0 (Herbicidal rate of 5% or less (almost no effect))
Barnyard grass [24]
  herbicidal effect on H: barnyard grass: 3 (Herbicidal rate of 40% or more and less than 70%)
Lambsquarters [25]
  O: lambsquarters, herbicidal effect rating: 0 (Herbicidal rate of 5% or less (almost no effect))
